In patent publication US11744824B2, “2-amino-3-carbonyl imidazopyridine and pyrazolopyridine compounds” (1ST Biotherapeutics, Inc., priority 2020, dated 2023):

Target: GST-tagged recombinant human RIP2 (Homo sapiens (Human), UniProt O43353)
Assay: RIP2 Kinase Assay (ADP-Glo)
Format: biochemical
Conditions: in vitro kinase activity, ATP 25 μM
Experimental: GST-tagged recombinant human RIP2 (25 ng) is incubated with 5 μL of compounds (0.5% DMSO), 5 μL of MBP (0.5 μg/μl) and 5 μL of ATP (25 μM) in buffer (40 mM Tris, 7.5; 20 mM MgCl2; 0.1 mg/ml BSA; 50 μM DTT). The assay was started by incubating the reaction mixture in a 96-well plate at 30° C. for 60 minutes. After the incubation, 25 μL ADP-Glo reagent was added, and the reaction was incubated at 30° C. for 40 minutes to stop the reaction and degrade residual ATP. The ADP product was then converted to ATP by adding 50 μL per well of detection reagent. Luminescence was detected after 30 minutes room temperature incubation with the Molecular device I3X plate reader. The IC50 values were calculated from a series of percent inhibition values determined at a range of inhibitor concentration using software routines as implemented in the GraphPad Prism 7 software and SigmaPlot 13.0.

GST-tagged recombinant human RIP2, sequence (O43353 whole entry): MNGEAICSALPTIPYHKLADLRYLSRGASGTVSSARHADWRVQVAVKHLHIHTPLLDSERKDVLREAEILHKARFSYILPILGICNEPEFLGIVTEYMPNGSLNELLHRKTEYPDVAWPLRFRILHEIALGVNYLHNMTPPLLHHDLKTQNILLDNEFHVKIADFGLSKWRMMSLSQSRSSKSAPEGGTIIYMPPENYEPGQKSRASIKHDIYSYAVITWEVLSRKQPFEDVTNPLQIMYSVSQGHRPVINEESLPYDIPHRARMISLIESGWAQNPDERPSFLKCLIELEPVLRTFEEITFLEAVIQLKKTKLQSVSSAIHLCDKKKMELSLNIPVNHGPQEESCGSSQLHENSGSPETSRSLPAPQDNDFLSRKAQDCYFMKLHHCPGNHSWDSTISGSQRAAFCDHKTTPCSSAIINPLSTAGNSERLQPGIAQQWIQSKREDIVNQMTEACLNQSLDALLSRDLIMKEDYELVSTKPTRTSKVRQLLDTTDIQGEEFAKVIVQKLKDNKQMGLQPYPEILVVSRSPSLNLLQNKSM

IC50 [nM]	SMILES
> 1000	Nc1nc2ccc(Br)cn2c1C(=O)C1CC1 [Example 1, (2-amino-6-bromoimidazo[1,2-a]pyridin-3-yl)(cyclopropyl)methanone]
101 to 500	Cc1ccncc1-c1ccc2nc(N)c(C(=O)C3CC3)n2c1 [Example 2]
101 to 500	Nc1nc2ccc(-c3cccs3)cn2c1C(=O)[C@@H]1C[C@@H]1F [Example 8]
1 to 100	Cc1cccc(-c2ccc3nc(N)c(C(=O)[C@@H]4C[C@@H]4F)n3c2)c1C [Example 11]
1 to 100	Cc1c(F)cccc1-c1ccc2nc(N)c(C(=O)c3ccccn3)n2c1 [Example 12]
101 to 500	Cc1ccc(C)c(-c2ccc3nc(N)c(C(=O)[C@@H]4C[C@@H]4F)n3c2)c1 [Example 16]
101 to 500	Cc1cccc(F)c1-c1ccc2nc(N)c(C(=O)[C@@H]3C[C@@H]3F)n2c1 [Example 18]
101 to 500	Cc1c(-c2ccc3nc(N)c(C(=O)[C@@H]4C[C@@H]4F)n3c2)cccc1C(F)(F)F [Example 19]
101 to 500	Cc1c(F)cccc1-c1ccc2nc(N)c(C(=O)C3CCC3)n2c1 [Example 20]
101 to 500	Cc1c(F)cccc1-c1ccc2nc(N)c(C(=O)c3cnn(C)c3)n2c1 [Example 21]
101 to 500	Cc1cc(F)ccc1-c1ccc2nc(N)c(C(=O)[C@H]3C[C@@H]3F)n2c1 [Example 25]
101 to 500	Cc1cccc(F)c1-c1ccc2nc(N)c(C(=O)[C@H]3C[C@@H]3F)n2c1 [Example 26]
> 1000	Nc1nc2ccc(-c3ccco3)cn2c1C(=O)[C@@H]1C[C@@H]1F [Example 27]
101 to 500	Cc1ccsc1-c1ccc2nc(N)c(C(=O)[C@@H]3C[C@@H]3F)n2c1 [Example 29]
> 1000	Nc1nc2ccc(-c3cncs3)cn2c1C(=O)[C@@H]1C[C@@H]1F [Example 30]
> 1000	CC(=O)Nc1nc2ccc(-c3cccc(F)c3C)cn2c1C(C)=O [Example 33, N-(3-acetyl-6-(3-fluoro-2-methylphenyl)imidazo[1,2-a]pyridin-2-yl)acetamide]
101 to 500	Nc1nc2ccc(-c3ccccc3Cl)cn2c1C(=O)[C@@H]1C[C@@H]1F [Example 34]
101 to 500	Cc1c(F)cccc1-c1ccc2nc(N)c(C(=O)[C@H]3C[C@H]3F)n2c1 [Example 35]
> 1000	Cc1c(F)cccc1-c1ccc2nc(N)c(C(=O)C3CCN3C(=O)OC(C)(C)C)n2c1 (stereo not shown) [Example 36]

IC50 [nM]	SMILES
> 1000	CC(=O)c1c(N(C(C)=O)C(C)=O)nc2ccc(-c3cccc(F)c3C)cn12 [Example 37, N-acetyl-N-(3-acetyl-6-(3-fluoro-2-methylphenyl)imidazo[1,2-a]pyridin-2-yl)acetamide]
> 1000	Nc1nc2ccc(-c3ccc(N4CCOCC4)cc3)cn2c1C(=O)[C@@H]1C[C@@H]1F [Example 39]
101 to 500	Cc1c(F)cccc1-c1ccc2nc(N)c(C(=O)[C@@H]3C[C@H]3F)n2c1 [Example 42]
101 to 500	Cc1c(F)cccc1-c1ccc2nc(N)c(C(=O)[C@H]3C[C@@H]3F)n2c1 [Example 43]
101 to 500	Cc1ccc(C(F)(F)F)cc1-c1ccc2nc(N)c(C(=O)[C@@H]3C[C@@H]3F)n2c1 [Example 45]
101 to 500	Cc1c(F)cccc1-c1ccc2nc(N)c(C(=O)[C@@H]3CC3(F)F)n2c1 [Example 47]
101 to 500	CN1CCN(c2ccc(-c3ccc4nc(N)c(C(=O)[C@@H]5C[C@@H]5F)n4c3)cc2)CC1 [Example 53]
101 to 500	CN1CCN(c2cccc(-c3ccc4nc(N)c(C(=O)[C@@H]5C[C@@H]5F)n4c3)c2)CC1 [Example 56]
1 to 100	Nc1nc2ccc(-c3ccc4cc[nH]c4c3)cn2c1C(=O)[C@@H]1C[C@@H]1F [Example 58]
1 to 100	Nc1nc2ccc(-c3cccc4cc[nH]c34)cn2c1C(=O)[C@@H]1C[C@@H]1F [Example 59]
101 to 500	Cc1c(F)c(N(C)C)c2[nH]ncc2c1-c1ccc2nc(N)c(C(=O)[C@@H]3C[C@@H]3F)n2c1 [Example 61]
1 to 100	Nc1nc2ccc(-c3ccc4occc4c3)cn2c1C(=O)[C@@H]1C[C@@H]1F [Example 63]
1 to 100	Cc1c(F)cccc1-c1ccc2nc(N)c(C(=O)c3ncccn3)n2c1 [Example 76]
101 to 500	Cc1c(F)cccc1-c1ccc2nc(N)c(C(=O)c3ccncn3)n2c1 [Example 77]
1 to 100	Nc1nc2ccc(-c3cnc4[nH]ccc4c3)cn2c1C(=O)c1ccncn1 [Example 78]
1 to 100	Nc1nc2ccc(-c3ccc4[nH]ncc4c3)cn2c1C(=O)[C@@H]1C[C@@H]1F [Example 80]
1 to 100	Nc1nc2ccc(-c3ccc4[nH]ncc4c3Cl)cn2c1C(=O)[C@@H]1C[C@@H]1F [Example 81]
> 1000	CNCCNc1nc2ccc(-c3cccc(F)c3C)cn2c1C(=O)[C@@H]1C[C@@H]1F [Example 87, (6-(3-fluoro-2-methylphenyl)-2-((2-(methylamino)ethyl)amino)imidazo[1,2-a]pyridin-3-yl)((1S,2S)-2-fluorocyclopropyl)methanone]
101 to 500	CC(=O)Nc1nc2ccc(-c3cccc(F)c3C)cn2c1C(=O)[C@@H]1C[C@@H]1F [Example 88, N-(6-(3-fluoro-2-methylphenyl)-3-((1S,2S)-2-fluorocyclopropane-1-carbonyl)imidazo[1,2-a]pyridin-2-yl)acetamide]

The next lines start with the compound.

SMILES	IC50 [nM]
Nc1nc2ccc(Br)cn2c1C(=O)[C@@H]1C[C@@H]1F [Example 4]	> 1000
CC(=O)c1c(N)nc2ccc(-c3cccc(F)c3C)cn12 [Example 6, 1-(2-amino-6-(3-fluoro-2-methylphenyl)imidazo[1,2-a]pyridin-3-yl)ethan-1-one]	101 to 500
Cc1cc(F)ccc1-c1ccc2nc(N)c(C(=O)[C@@H]3C[C@@H]3F)n2c1 [Example 7]	101 to 500
Nc1nc2ccc(-c3cccc(F)c3C(F)(F)F)cn2c1C(=O)[C@@H]1C[C@@H]1F [Example 10]	> 1000
Cc1c(F)cccc1-c1ccc2nc(N)c(C(=O)c3ccccc3)n2c1 [Example 13]	101 to 500
Cc1c(F)cccc1-c1ccc2nc(N)c(C(=O)C3CC3)n2c1 [Example 14]	1 to 100
Cc1ccc(F)cc1-c1ccc2nc(N)c(C(=O)[C@@H]3C[C@@H]3F)n2c1 [Example 15]	1 to 100
Cc1ccc(-c2ccc3nc(N)c(C(=O)[C@@H]4C[C@@H]4F)n3c2)c(C)c1 [Example 17]	101 to 500
Cc1c(F)cccc1-c1ccc2nc(N)c(C(=O)C(C)(C)C)n2c1 [Example 22]	101 to 500
CCCCC(=O)c1c(N)nc2ccc(-c3cccc(F)c3C)cn12 [Example 23]	501 to 1000
Cc1c(F)cccc1-c1ccc2nc(NCCN(C)C)c(C(=O)[C@@H]3C[C@@H]3F)n2c1 [Example 24, (2-((2-(dimethylamino)ethyl)amino)-6-(3-fluoro-2-methylphenyl)imidazo[1,2-a]pyridin-3-yl)((1S,2S)-2-fluorocyclopropyl)methanone]	> 1000
Cc1scnc1-c1ccc2nc(N)c(C(=O)[C@@H]3C[C@@H]3F)n2c1 [Example 28, (2-amino-6-(5-methylthiazol-4-yl)imidazo[1,2-a]pyridin-3-yl)((1S,2S)-2-fluorocyclopropyl)methanone]	101 to 500
Cc1c(-c2ccc3nc(N)c(C(=O)[C@@H]4C[C@@H]4F)n3c2)ccc(F)c1F [Example 31]	101 to 500
CC(=O)c1ccc(-c2ccc3nc(N)c(C(=O)[C@@H]4C[C@@H]4F)n3c2)c(C)c1 [Example 38]	> 1000
Cc1c(F)cccc1-c1ccc2nc(N)c(C(=O)C3CC(F)(F)C3)n2c1 [Example 46]	501 to 1000
Cc1c(F)cccc1-c1ccc2nc(N)c(C(=O)C3CCN3)n2c1 (stereo not shown) [Example 48]	101 to 500
Cc1c(F)cccc1-c1ccc2nc(N)c(C(=O)C3CN(C(=O)OC(C)(C)C)C3)n2c1 [Example 49]	> 1000
Cc1c(F)cccc1-c1ccc2nc(N)c(C(=O)C3CNC3)n2c1 [Example 50]	1 to 100
Nc1nc2ccc(-c3ccc(N4CCNCC4)cc3)cn2c1C(=O)[C@@H]1C[C@@H]1F [Example 52]	501 to 1000
CNc1nc2ccc(-c3cccc(F)c3C)cn2c1C(=O)[C@@H]1C[C@@H]1F [Example 54, (6-(3-fluoro-2-methylphenyl)-2-(methylamino)imidazo[1,2-a]pyridin-3-yl)((1S,2S)-2-fluorocyclopropyl)methanone]	> 1000
Cc1c(F)cccc1-c1ccc2nc(N(C)C)c(C(=O)[C@H]3C[C@@H]3F)n2c1 [Example 55, (2-(dimethylamino)-6-(3-fluoro-2-methylphenyl)imidazo[1,2-a]pyridin-3-yl)((1R,2S)-2-fluorocyclopropyl)methanone]	> 1000
CSc1c(F)c(C)c(-c2ccc3nc(N)c(C(=O)[C@@H]4C[C@@H]4F)n3c2)c2cn[nH]c12 [Example 62]	101 to 500
CSc1c(F)c(Cl)c(-c2ccc3nc(N)c(C(=O)[C@@H]4C[C@@H]4F)n3c2)c2cn[nH]c12 [Example 66]	101 to 500
Cc1c(F)cccc1-c1ccc2nc(NC(=O)OC(C)(C)C)c(C(=O)[C@@H]3C[C@@H]3F)n2c1 [Example 70, tert-butyl (6-(3-fluoro-2-methylphenyl)-3-((1S,2S)-2-fluorocyclopropane-1-carbonyl)imidazo[1,2-a]pyridin-2-yl)carbamate]	> 1000
Cc1c(F)cccc1-c1ccc2nc(N3CCCC3)c(C(=O)[C@@H]3C[C@@H]3F)n2c1 [Example 71, (6-(3-fluoro-2-methylphenyl)-2-(pyrrolidin-1-yl)imidazo[1,2-a]pyridin-3-yl)((1S,2S)-2-fluorocyclopropyl)methanone]	> 1000
Cc1cc(-c2ccc3nc(N)c(C(=O)[C@@H]4C[C@@H]4F)n3c2)sn1 [Example 72]	101 to 500
